Measured values as given in patent US11123323B2, “Monoterpenes for treating respiratory disorders, in particular bronchopulmonary disorders” (Maria Clemetine Martin Klosterfrau Vertriebsqesellschaft MBH, priority 2008, dated 2021).

Tested on: hydrogen peroxide (H2O2) production
Experiment: Hydrogen peroxide production
Conditions: low concentrations relevant for the respiratory air and therapeutic range

Question: How did the “production of H2O2” value turn out when CC12CCC(CC1)C(C)(C)O2 [1,8-cineol, 1,3,3-trimethyl-2-oxabicyclo-[2.2.2]-octane] was run?
Answer: inhibited the production of O2^− radicals and H2O2
